Here are results for 2 compounds from patent publication US9078811B2, “Methods of increasing oral bioavailability of tetracyclines” (Paratek Pharmaceuticals, Inc., priority 2006, dated 2015).

Molecules are shown by their SMILES. Structures can show the parent of a compound that is named as a salt.

Assay type in all cases: in vivo
Data set [1] can be described thus: PK and oral bioavailability following dosing via oral gavage in rats. On the procedure: Solutions of 9-[(2,2, dimethyl-propyl amino)-methyl]-minocycline freebase (5 mg/kg [2 ml/kg]) were administered by oral gavage. The solutions were composed of 9-[(2,2, dimethyl-propyl amino)-methyl]-minocycline alone or in combination with bioavailability enhancing agents to assess their effect on oral bioavailability.
The % F was calculated using the IV data presented in Example 1 and the equation: % F=Oral AUC/IV AUC.

The nature of data set [2]: Effects of permeability enhancers on bioavailability, oral gavage in rats. On the procedure:
As a control, a solution of 9-[(2,2, dimethyl-propyl amino)-methyl]-minocycline freebase (“freebase”) was prepared using sterile water and the final pH was adjusted to ˜5. To prepare the sodium caprate (sodium decanoate, a compound that increases paracellular permeability) containing solution, the freebase was first dissolved in sterile water and sodium caprate was then added to a final concentration of 13 mM. The resulting solution was administered to rats via oral gavage without pH adjustment. The solution of freebase containing 1.5% chitosan was then prepared by first dissolving the freebase in sterile water and then adjusting the pH of this solution (pH ˜8.1) to a final pH ˜5 using 1N HCl. Chitosan was then added to a final concentration of 1.5% and the resulting solution was administered to rats via oral gavage as a slurry.

Data set [3] is described as follows: PK following intravenous administration in rats. Conditions: for AUC: IV 1 mg/kg, jugular vein. On the procedure: The bioavailability of 9-[(2,2, dimethyl-propyl amino)-methyl]-minocycline following intravenous administration in rats was studied. The freebase (“FB”) and the HCl salt (“HCl salt”) of 9-[(2,2, dimethyl-propyl amino)-methyl]-minocycline were used. All formulations were prepared fresh on the day of the experiment. Samples for pharmacokinetic analysis were collected from a cannula within the carotid artery of the rats. Intravenous doses of (1 mg/kg) were administered to rats through cannulas in either the jugular or portal veins.

The nature of data set [4]: PK and bioavailability following intra-duodenal administration in rats. On the procedure: In order to measure the effect of delivering 9-[(2,2, dimethyl-propyl amino)-methyl]-minocycline directly into the duodenum, rats bearing duodenal cannulas were administered 9-[(2,2, dimethyl-propyl amino)-methyl]-minocycline freebase alone or in combination with bioavailability enhancing agents to assess their effects on bioavailability.

[5] abbreviates: rats with duodenal cannulas, intra-duodenal administration.

Turning to `CN(C)c1cc(CNCC(C)(C)C)c(O)c2c1C[C@H]1C[C@H]3[C@H](N(C)C)C(O)=C(C(N)=O)C(=O)[C@@]3(O)C(O)=C1C2=O` [FB, 9-[(2,2, dimethyl-propylamino)-methyl]-minocycline], the “% F (oral bioavailability)” value in data set [1] (oral gavage 5 mg/kg, calculated using the IV data of Example 1) is 11.7 ± 4.1%. The AUC is 330 ± 120 ng·h/mL in data set [1] (oral gavage, 5 mg/kg [2 ml/kg] solution); 330 ± 120 ng·h/mL in data set [2]; 0.57 (0.50; 0.63) ug*hr/mL in data set [3] (fasted, 1 mg/kg); 440 ± 150 ng·h/mL in data set [4] (setting [5]). Further, the “% F” value in data set [2] turned out to be 11.7 ± 4.1%; in data set [4] (setting [5]), 15.4 ± 5.2%. In data set [3] (IV, fasted animals), the “differences in pharmacokinetic parameters, freebase vs HCl salt” value is “no significant differences”. For the same compound, the “effects of first pass hepatic elimination on pharmacokinetics” value in data set [3] (after IV dosing) is recorded as “no significant effects”. In data set [4] (rats, intra-duodenal), the “change in AUC when administered directly to the duodenum” value is “significant increase in AUC”.

For the compound `CN(C)c1cc(CNCC(C)(C)C)c(O)c2c1C[C@H]1C[C@H]3[C@H](N(C)C)C(O)=C(C(N)=O)C(=O)[C@@]3(O)C(O)=C1C2=O` [HCl salt, 9-[(2,2, dimethyl-propylamino)-methyl]-minocycline], the AUC in data set [3] (fasted, 1 mg/kg) is 0.59 (0.45; 0.73) ug*hr/mL; in data set [3] (fed), 0.46 ± 0.04 µg·h/mL. Also, the “differences in pharmacokinetic parameters, freebase vs HCl salt” value in data set [3] (IV, fasted animals) is listed as “no significant differences”. For the same compound, the “total exposure (AUC) and clearance, portal vein vs jugular vein” value in data set [3] (IV, fasted animals) is reported as “equal”. The “tendency for higher clearance in a fed group” value in data set [3] (IV, fed vs fasted) is approximately 22%.
